Results on 1 substance are retold here after US20080155704A1, “Methods and Compositions for Determining in vivo Activity of BiP” (King's College London, priority 2006, published 2008).

The assay deals with IL-10. In words: IL-10 production by dendritic cell cultures (ELISA). Type of assay: cell-based, human. The settings on record: for IL-10 production: n=8. Here is the method:
(§1) Supernatant samples were collected on day 1, 3 and 7 for iDC and from the final cultures of the T cells taken from the iDC/mDC-T cell allogeneic test system and set up with autologous cells to determine if there was any regulatory activity. The samples were aliquoted and frozen at −70° C. until required. Production IL-10 was quantified by ELISA using paired antibodies and recombinant standards (PharMingen, Oxford, UK) according to the recommendations of the manufacturer. In addition some were analysed by cytometric bead assay (BD, Oxford, UK) according to the manufacturers instructions.
To neutralize IL-10 within the cultures anti-IL-10 antibody (ATCC, Rockville, USA) was added at day 0 (5 μg/ml) to GM-CSF and IL-4 treated cultures in the presence and absence of BiP (20 μg/ml). Two specific cell-permeable inhibitors of the MAPK intracellular signalling pathways were used. SB203580 (SB)(10 μM)((Calbiochem, Darmstadt, Germany) inhibits p38 MAPK, and PD98059 (PD) (10 μM)(Calbiochem), an inhibitor of MAPK extracellular signal regulated kinase (ERK), were tested. MO were pre-treated with the inhibitors for 2 h before adding GM-CSF and IL-4 in the presence or absence of BiP.
as §1, with “of the pro-inflammatory cytokine, TNFα, and the anti-inflammatory cytokine, IL-10,” for “IL-10”

With “BiP: 78 kD endoplasmic reticulum chaperone protein as disclosed in WO 00/21995; recombinant human protein”, the “IL-10 production by early DC(BiP) cultures” value (3d GM-CSF and IL-4 with BiP 20 μg/ml, inhibitors 10 μM, anti-IL-10 added at day 0 (FIG. 13D)) was “significantly more IL-10”. Besides, the IL-10 production runs as follows: (iDC(BiP), 7d culture) 819.1 ± 688 pg/mL; (mDC(BiP), 7d culture with LPS final 2d) 970.1 ± 684 pg/mL. Under “versus untreated DC (FIG. 1)”, the “IL-10 production by BiP-treated DC” value is reported as “significantly more IL-10”.
